Reference: PubChem BioAssay (NCI)
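48-hour exposure; five concentrations; linearly interpolated endpoints. The concentration for 50% growth inhibition is given as GI50. TGI denotes the concentration required for complete inhibition of growth.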

Key:
Test in all cases: inhibition of tumour cell growth, NCI panel, 48 h
UACC-257 melanoma = tested on: UACC-257 melanoma
TK-10 renal = tested on: TK-10 renal
NCI-H522 lung = tested on: NCI-H522 lung
UO-31 renal = tested on: UO-31 renal
SK-MEL-28 melanoma = tested on: SK-MEL-28 melanoma
M14 melanoma = tested on: M14 melanoma
SF-268 CNS = tested on: SF-268 CNS
A549 NSCLC = tested on: A549 NSCLC
HCT-116 colon = tested on: HCT-116 colon
K-562 leukemia = tested on: K-562 leukemia

COc1cccc(-c2cc(=O)c3cc(C)c(C)c(C(=O)O)c3o2)c1
TGI (UACC-257 melanoma): > 100 µM
TGI (TK-10 renal): > 100 µM
TGI (NCI-H522 lung): > 100 µM
TGI (UO-31 renal): > 100 µM
TGI (SK-MEL-28 melanoma): > 100 µM
TGI (M14 melanoma): > 100 µM
TGI (SF-268 CNS): > 100 µM
TGI (A549 NSCLC): > 100 µM
TGI (HCT-116 colon): > 100 µM
TGI (K-562 leukemia): > 100 µM

Nc1nc(=O)c2[nH]cnc2n1O
TGI (UACC-257 melanoma): > 100 µM
TGI (TK-10 renal): > 100 µM
TGI (NCI-H522 lung): > 100 µM
TGI (UO-31 renal): > 100 µM
TGI (SK-MEL-28 melanoma): > 100 µM
TGI (M14 melanoma): > 100 µM
TGI (SF-268 CNS): > 100 µM
TGI (A549 NSCLC): > 100 µM
TGI (HCT-116 colon): > 100 µM
TGI (K-562 leukemia): > 100 µM

COc1ccc(-c2c(-c3cc4c(c(OC)c3OC)OCO4)noc2N)cc1
GI50 (UACC-257 melanoma): 0.458 µM
TGI (UACC-257 melanoma): > 100 µM
GI50 (TK-10 renal): 0.343 µM
TGI (TK-10 renal): > 100 µM
GI50 (NCI-H522 lung): 0.081 µM
TGI (NCI-H522 lung): 0.432 µM
GI50 (UO-31 renal): 2.69 µM
TGI (UO-31 renal): > 100 µM
GI50 (SK-MEL-28 melanoma): 0.459 µM
TGI (SK-MEL-28 melanoma): > 100 µM
GI50 (M14 melanoma): 0.231 µM
TGI (M14 melanoma): 3.24 µM
GI50 (SF-268 CNS): 0.745 µM
TGI (SF-268 CNS): > 95.8 µM
GI50 (A549 NSCLC): 0.544 µM
TGI (A549 NSCLC): > 100 µM
GI50 (HCT-116 colon): 0.34 µM
TGI (HCT-116 colon): 15.9 µM
GI50 (K-562 leukemia): 0.0688 µM
TGI (K-562 leukemia): > 100 µM

COc1ccccc1CN=C1NC(=O)/C(=C/c2ccc3ncccc3c2)S1
GI50 (UACC-257 melanoma): > 25 µM
TGI (UACC-257 melanoma): > 25 µM
GI50 (TK-10 renal): 7.97 µM
TGI (TK-10 renal): > 25 µM
GI50 (NCI-H522 lung): 4.96 µM
TGI (NCI-H522 lung): 13 µM
GI50 (UO-31 renal): 7.37 µM
TGI (UO-31 renal): > 21.7 µM
GI50 (SK-MEL-28 melanoma): > 15.3 µM
TGI (SK-MEL-28 melanoma): > 25 µM
GI50 (M14 melanoma): 14.5 µM
TGI (M14 melanoma): > 25 µM
GI50 (SF-268 CNS): 7.89 µM
TGI (SF-268 CNS): > 25 µM
GI50 (A549 NSCLC): 6.93 µM
TGI (A549 NSCLC): > 25 µM
GI50 (HCT-116 colon): 3.1 µM
TGI (HCT-116 colon): > 25 µM
GI50 (K-562 leukemia): 8.4 µM
TGI (K-562 leukemia): > 25 µM

COc1ccc2c(c1)[n+]([O-])c(/C(C)=N/NC(N)=S)c(C)[n+]2[O-]
TGI (UACC-257 melanoma): > 100 µM
TGI (TK-10 renal): > 100 µM
TGI (NCI-H522 lung): > 100 µM
TGI (UO-31 renal): > 100 µM
TGI (SK-MEL-28 melanoma): > 100 µM
TGI (M14 melanoma): > 100 µM
TGI (SF-268 CNS): > 100 µM
TGI (A549 NSCLC): > 100 µM
TGI (HCT-116 colon): > 93.2 µM
TGI (K-562 leukemia): > 100 µM

Oc1ccccc1/C=N/Nc1nc2ccccc2s1
GI50 (UACC-257 melanoma): 8.87 µM
TGI (UACC-257 melanoma): > 100 µM
GI50 (TK-10 renal): 4.79 µM
TGI (TK-10 renal): > 100 µM
GI50 (NCI-H522 lung): 4.74 µM
TGI (NCI-H522 lung): > 100 µM
GI50 (UO-31 renal): 4.86 µM
TGI (UO-31 renal): > 100 µM
GI50 (SK-MEL-28 melanoma): 89 µM
TGI (SK-MEL-28 melanoma): > 100 µM
GI50 (SF-268 CNS): 3.8 µM
TGI (SF-268 CNS): > 100 µM
GI50 (A549 NSCLC): 6.52 µM
TGI (A549 NSCLC): > 100 µM
GI50 (HCT-116 colon): 2.85 µM
TGI (HCT-116 colon): > 100 µM
GI50 (K-562 leukemia): 6.48 µM
TGI (K-562 leukemia): > 100 µM

O=C(NCCN1CCOCC1)Nc1nc2ccc(Sc3nnc4ccc(-c5ccc(F)cc5)nn34)cc2s1
GI50 (UACC-257 melanoma): 7.94 µM
TGI (UACC-257 melanoma): > 21.2 µM
GI50 (TK-10 renal): > 100 µM
TGI (TK-10 renal): > 100 µM
GI50 (NCI-H522 lung): 26.4 µM
TGI (NCI-H522 lung): > 100 µM
GI50 (UO-31 renal): > 100 µM
TGI (UO-31 renal): > 100 µM
GI50 (SK-MEL-28 melanoma): 2.59 µM
TGI (M14 melanoma): > 38.8 µM
GI50 (SF-268 CNS): > 23.3 µM
TGI (SF-268 CNS): > 100 µM
GI50 (A549 NSCLC): > 100 µM
TGI (A549 NSCLC): > 100 µM
GI50 (HCT-116 colon): 6.88 µM
TGI (HCT-116 colon): > 100 µM
GI50 (K-562 leukemia): 2.31 µM
TGI (K-562 leukemia): > 100 µM

O=C1c2cccc3c([N+](=O)[O-])ccc(c23)C(=O)N1CCCCl
GI50 (UACC-257 melanoma): 7.14 µM
TGI (UACC-257 melanoma): > 10 µM
GI50 (TK-10 renal): > 10 µM
TGI (TK-10 renal): > 10 µM
GI50 (NCI-H522 lung): 4.34 µM
TGI (NCI-H522 lung): > 10 µM
GI50 (UO-31 renal): > 10 µM
TGI (UO-31 renal): > 10 µM
GI50 (SK-MEL-28 melanoma): 3.84 µM
TGI (SK-MEL-28 melanoma): > 10 µM
GI50 (M14 melanoma): 5.85 µM
TGI (M14 melanoma): > 10 µM
GI50 (SF-268 CNS): 3.17 µM
TGI (SF-268 CNS): > 10 µM
GI50 (A549 NSCLC): > 10 µM
TGI (A549 NSCLC): > 10 µM
GI50 (HCT-116 colon): 1.71 µM
TGI (HCT-116 colon): 3.16 µM
GI50 (K-562 leukemia): 3.04 µM
TGI (K-562 leukemia): > 10 µM

CCOC(=O)C1Nc2ccc([N+](=O)[O-])cc2[C@H]2OCC[C@@H]12 (some centres undefined)
TGI (UACC-257 melanoma): > 100 µM
TGI (TK-10 renal): > 100 µM
TGI (NCI-H522 lung): > 100 µM
TGI (SK-MEL-28 melanoma): > 100 µM
TGI (M14 melanoma): > 100 µM
TGI (SF-268 CNS): > 100 µM
TGI (A549 NSCLC): > 100 µM
TGI (HCT-116 colon): > 100 µM
TGI (K-562 leukemia): > 100 µM

COc1cc(-c2nn(-c3ccc(NC(=O)Nc4ccc(Cl)c(C(F)(F)F)c4)cc3)cc2-c2ccncc2)ccc1Cl
GI50 (UACC-257 melanoma): 1.64 µM
TGI (UACC-257 melanoma): 3.69 µM
GI50 (TK-10 renal): 3.06 µM
TGI (TK-10 renal): 13.2 µM
GI50 (UO-31 renal): 1.44 µM
TGI (UO-31 renal): 3.13 µM
GI50 (SK-MEL-28 melanoma): 1.88 µM
TGI (SK-MEL-28 melanoma): 3.9 µM
GI50 (M14 melanoma): 1.74 µM
TGI (M14 melanoma): 3.63 µM
GI50 (SF-268 CNS): 1.93 µM
TGI (SF-268 CNS): 5.01 µM
GI50 (A549 NSCLC): 2.66 µM
TGI (A549 NSCLC): 11.4 µM
GI50 (HCT-116 colon): 1.14 µM
TGI (HCT-116 colon): 2.53 µM
GI50 (K-562 leukemia): 1.59 µM
TGI (K-562 leukemia): 5.58 µM

CC12CCC(=O)N1c1cc([N+](=O)[O-])ccc1N2 (centres undefined)
TGI (UACC-257 melanoma): > 100 µM
TGI (NCI-H522 lung): > 100 µM
TGI (UO-31 renal): > 100 µM
TGI (SK-MEL-28 melanoma): > 100 µM
TGI (M14 melanoma): > 100 µM
TGI (SF-268 CNS): > 100 µM
TGI (A549 NSCLC): > 100 µM
TGI (HCT-116 colon): > 100 µM
TGI (K-562 leukemia): > 100 µM

CC(C)(C)c1cc(O)c2c(c1O)C(=O)CCC2
TGI (UACC-257 melanoma): 74.3 µM
TGI (TK-10 renal): > 100 µM
TGI (SK-MEL-28 melanoma): > 100 µM
TGI (M14 melanoma): > 100 µM
TGI (A549 NSCLC): > 100 µM
TGI (HCT-116 colon): > 100 µM
TGI (K-562 leukemia): > 100 µM

CC1=CC[C@@H]2[C@@H](CC[C@@]2(C)O)C(C)(C)[C@H]1CC[C@@H]1[C@@]2(C)CC[C@@H](O)C(C)(C)O[C@@H]2CC[C@]1(C)O
TGI (UACC-257 melanoma): 81 µM
TGI (TK-10 renal): > 100 µM
TGI (UO-31 renal): 34.3 µM
TGI (SK-MEL-28 melanoma): 35.7 µM
TGI (M14 melanoma): 61.9 µM
TGI (A549 NSCLC): > 100 µM
TGI (HCT-116 colon): 27 µM
TGI (K-562 leukemia): > 100 µM

COc1cc(/C=C/C(=O)c2ccc(F)cc2)ccc1OCCCCOc1cc2c(cc1OC)C(=O)N1CCCC1C=N2 (centres undefined)
GI50 (TK-10 renal): 1.7 µM
TGI (TK-10 renal): 23.2 µM
GI50 (NCI-H522 lung): 1.64 µM
TGI (NCI-H522 lung): 4.35 µM
GI50 (UO-31 renal): 0.891 µM
GI50 (SK-MEL-28 melanoma): 15.3 µM
TGI (SK-MEL-28 melanoma): > 100 µM
GI50 (M14 melanoma): 2.11 µM
TGI (M14 melanoma): 4.08 µM
GI50 (SF-268 CNS): 1.03 µM
TGI (SF-268 CNS): 12.5 µM
GI50 (A549 NSCLC): 2.46 µM
TGI (A549 NSCLC): > 21.9 µM
GI50 (HCT-116 colon): 0.618 µM
TGI (HCT-116 colon): 6.09 µM
GI50 (K-562 leukemia): 0.62 µM
TGI (K-562 leukemia): 4.05 µM

CCOC(=O)NC(=O)c1cn(CC(=O)NCC(=O)NCC(=O)N2CCN(CCn3c(C)nc(C(N)=O)c3N)CC2)c(=O)[nH]c1=O
TGI (UACC-257 melanoma): > 100 µM
TGI (TK-10 renal): > 100 µM
TGI (UO-31 renal): > 100 µM
TGI (SK-MEL-28 melanoma): > 100 µM
TGI (M14 melanoma): > 100 µM
TGI (SF-268 CNS): > 100 µM
TGI (A549 NSCLC): > 100 µM
TGI (HCT-116 colon): > 100 µM
TGI (K-562 leukemia): > 100 µM

N#CC1=C(c2ccccc2)NN(Cc2ccccc2)C(c2ccc(Cl)cc2)CC1=O (centres undefined)
TGI (UACC-257 melanoma): > 100 µM
TGI (TK-10 renal): > 100 µM
TGI (NCI-H522 lung): 38.5 µM
TGI (SK-MEL-28 melanoma): > 100 µM
TGI (SF-268 CNS): > 100 µM
TGI (A549 NSCLC): 62.3 µM
TGI (HCT-116 colon): 48.5 µM

COC(=O)c1ccc(CS(=O)(=O)c2ccccc2)cc1
TGI (UACC-257 melanoma): > 100 µM
TGI (TK-10 renal): > 100 µM
TGI (UO-31 renal): > 100 µM
TGI (SK-MEL-28 melanoma): > 100 µM
TGI (M14 melanoma): > 100 µM
TGI (SF-268 CNS): > 100 µM
TGI (A549 NSCLC): > 100 µM
TGI (HCT-116 colon): > 100 µM
TGI (K-562 leukemia): > 100 µM
